Laboratory results from patent US8901118B2, “Compounds and methods for kinase modulation, and indications therefor” (Plexxikon Inc., priority 2010, dated 2014).
pIC50: −log10 of the molar value.

How the values were obtained:
[1] = molecular target: Fms kinase (Homo sapiens, UniProt P07333); assay: Fms kinase biochemical activity assay (AlphaScreen, biotin-(E4Y)10 phosphorylation); conditions: 100 μM ATP; read-out: Biochemical Inhibition IC50 Fms
Experimental: In one assay the biochemical activity IC50 values are determined with respect to inhibition of Fms kinase activity, where inhibition of phosphorylation of a peptide substrate is measured as a function of compound concentration. Compounds to be tested, dissolved in DMSO (1 μL), are added to a white 384-well plate (Costar #3705). Working stocks of Fms kinase (Invitrogen #PV3249), biotin-(E4Y)10 substrate (Upstate Biotech, Cat#12-440), and ATP (Sigma, Cat#A-3377) are prepared in 25 mM Hepes pH 7.5, 0.5 mM MgCl2, 2 mM MnCl2, 2 mM DTT, 0.01% BSA, and 0.01% Tween-20. All components are added to the 384-well plate for a final concentration of 1 ng/well Fms, 30 nM biotin-(E4Y)10 (Upstate Biotechnology) and 100 μM ATP in a volume of 20 μL. Each sample is at 5% DMSO. The plate is then incubated for 20 minutes at 30° C. Just before use, working stocks of donor and acceptor beads from the AlphaScreen PY20 Detection Kit (PerkinElmer, Cat#676601M) are prepared in 25 mM Hepes pH 7.5, pH 7.4, 100 mM EDTA, 0.01% BSA. To stop the reaction, the plate is uncovered in the dark and 5 μL of Donor Beads solution (Streptavidin beads) is added to each well. The plate is incubated at room temperature for 20 minutes. Five microliters of Acceptor Beads solution (PY20 coated beads) are then added to each well. The final concentration of each bead is 10 μg/mL. The plates are incubated at room temperature for 60 minutes. Fluorescence signal is recorded on the Envision reader. Phosphorylated substrate results in binding of the PY20 antibody and association of the donor and acceptor beads such that signal correlates with kinase activity. The signal vs. compound concentration is used to determine the IC50.

[2] = molecular target: CYP3A4(BQ) (Homo sapiens, UniProt P08684); assay: CYP3A4(BQ) inhibition; type: in vitro ADME; conditions: CYP3A4, substrate BQ; read-out: Cyp IC50 3A4(BQ)
Sequence of CYP3A4(BQ) (P08684 whole entry): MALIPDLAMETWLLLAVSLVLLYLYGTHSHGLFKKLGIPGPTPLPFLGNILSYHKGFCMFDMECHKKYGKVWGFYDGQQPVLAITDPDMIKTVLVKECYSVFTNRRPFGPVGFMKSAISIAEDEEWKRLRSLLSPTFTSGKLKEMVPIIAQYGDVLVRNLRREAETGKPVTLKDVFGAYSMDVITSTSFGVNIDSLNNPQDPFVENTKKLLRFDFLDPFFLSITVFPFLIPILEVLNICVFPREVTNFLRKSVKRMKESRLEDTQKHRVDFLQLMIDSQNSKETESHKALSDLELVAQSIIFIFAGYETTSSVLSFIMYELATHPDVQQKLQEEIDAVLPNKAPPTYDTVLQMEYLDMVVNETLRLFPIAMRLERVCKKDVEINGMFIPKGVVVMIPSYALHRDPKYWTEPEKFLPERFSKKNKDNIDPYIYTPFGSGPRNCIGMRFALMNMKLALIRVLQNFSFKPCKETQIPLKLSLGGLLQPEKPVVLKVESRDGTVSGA
Experimental: (§1) CYP (Cytochrome P450) enzymes are the major drug metabolizing enzymes present in the liver. The inhibition of CYP enzyme activity (IC50) for each of CYP1A2, CYP2C19, CYP2C9, CYP2D6, CYP3A4(BFC) and CYP3A4(BQ) is determined for compounds, where inhibition of metabolism of a known substrate leads to a decrease in the fluorescence of the metabolized product. The fluorescence of the product is monitored as a function of compound concentration. Compounds are dissolved in DMSO to a concentration of 100 mM. These are diluted 1 μL into 82 μL of acetonitrile. An 11 μL aliquot of this solution is then added to 204 μL of cofactor mix (1.3% NADPH Regeneration system Solution A, 1.04% NADPH Regeneration system Solution B from BD Biosciences, 5% acetonitrile and 0.05% DMSO). These are then serially diluted 1:1 (160 μL to 160 μL co-factor mix) for a total of 10 points. A 10 μL aliquot of this final mixture is dispensed into 384 well assay plates and incubated for 10 minutes at 37° C. […] Assay plates are incubated at 37° C. (CYP1A2-15 min; CYP2C9-45 min; CYP2C19, 2D6 and 3A4-30 min) and read in a Tecan Safire 2 plate reader (CYP1A2, 2C19 and 3A4 409 ex/460 em; CYP2C9 and 2D6 409 ex/530 em). The signal versus compound concentration is used to determine the IC50. The enzymes and substrates for this assay are obtained from BD Biosciences.

[3] = molecular target: T1, CYP1A2 (Homo sapiens, UniProt P05177); assay: CYP1A2 inhibition (fluorescent substrate CEC); type: in vitro ADME; conditions: read-out: Cyp IC50 1A2
T1 sequence (P05177 1-516): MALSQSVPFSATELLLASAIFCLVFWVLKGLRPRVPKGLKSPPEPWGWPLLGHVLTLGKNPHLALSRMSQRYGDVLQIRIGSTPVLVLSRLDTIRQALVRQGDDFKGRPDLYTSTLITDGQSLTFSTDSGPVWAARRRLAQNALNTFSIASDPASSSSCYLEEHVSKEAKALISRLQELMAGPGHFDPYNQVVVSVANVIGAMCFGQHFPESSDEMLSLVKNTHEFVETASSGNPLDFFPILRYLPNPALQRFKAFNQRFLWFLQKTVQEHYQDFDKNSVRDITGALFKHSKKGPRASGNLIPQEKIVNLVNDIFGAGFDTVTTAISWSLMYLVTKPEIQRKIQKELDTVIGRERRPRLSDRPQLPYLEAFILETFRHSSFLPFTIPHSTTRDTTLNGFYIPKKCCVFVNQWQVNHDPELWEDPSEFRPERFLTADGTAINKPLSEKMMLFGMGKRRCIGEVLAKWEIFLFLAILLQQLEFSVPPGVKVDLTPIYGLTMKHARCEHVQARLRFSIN
Experimental: as §1

[4] = Relative solubility by turbidity in aqueous buffers (pH 1.5, 4.5, 6.8, 7.4); type: physicochemical; conditions: for turbidity threshold (L, M, H) 1.4: pH 1.5 (SGF); for turbidity threshold (L, M, H) 4.5: pH 4.5 (SIF); for turbidity threshold (L, M, H) 6.8: pH 6.8 (SIF); for turbidity threshold (L, M, H) 7.4: pH 7.4 (HEPES)
Experimental: As an indication of relative solubility, the turbidity of compounds in aqueous solutions is assessed. To assess possible compound properties in different physiological compartments, such as stomach, intestine, and blood, a series of aqueous buffers with varying pH is used. Thus each compound is diluted into four different physiologically relevant buffers and solution turbidity is measured by spectrophotometry.
Compounds are dissolved at a concentration of 25 mM in dimethyl sulfoxide, then serially diluted 1:1 into a 96 well plate, diluting 10 times in pure dimethyl sulfoxide, with the final well of each row a dimethyl sulfoxide blank. In an assay plate, 99 μL of appropriate buffer is added to each well, and 1 μL of each sample dilution is added to the buffer, achieving a range of final total concentrations in aqueous solutions having different pH. The buffers used are Simulated Gastric Fluid (SGF-pH 1.5) 0.5M NaCl, pH 1.5; Simulated Intestinal fluid (SIF-pH 4.5 and pH 6.8) 0.05M NaH2PO4, pH 4.5 and 6.8; and Hepes Buffer (HEPES-pH 7.4) 10 mM HEPES, 150 mM NaCl, pH 7.4. Control compounds pyrene, estriol and propranolol HCl are also assessed. Plates are spun and then mixed for 1 minute, and the absorbance is read using a Tecan Safire II to read wavelengths in the visible range (490, 535, and 650 nm) at four locations per well, reflecting the degree of turbidity present. The average optical density for each wavelength in each well is graphed vs. compound concentration, and the concentration at which the curve crosses a threshold O.D. of 0.01 for each wavelength is reported as the endpoint turbidity assay result. The average of the three wavelengths is used to compare turbidity of compounds.

[5] = molecular target: CYP2D6 (Homo sapiens, UniProt P10635); assay: CYP2D6 inhibition (fluorescent substrate AMMC); type: in vitro ADME; conditions: read-out: Cyp IC50 2D6
Sequence of CYP2D6 (P10635 whole entry): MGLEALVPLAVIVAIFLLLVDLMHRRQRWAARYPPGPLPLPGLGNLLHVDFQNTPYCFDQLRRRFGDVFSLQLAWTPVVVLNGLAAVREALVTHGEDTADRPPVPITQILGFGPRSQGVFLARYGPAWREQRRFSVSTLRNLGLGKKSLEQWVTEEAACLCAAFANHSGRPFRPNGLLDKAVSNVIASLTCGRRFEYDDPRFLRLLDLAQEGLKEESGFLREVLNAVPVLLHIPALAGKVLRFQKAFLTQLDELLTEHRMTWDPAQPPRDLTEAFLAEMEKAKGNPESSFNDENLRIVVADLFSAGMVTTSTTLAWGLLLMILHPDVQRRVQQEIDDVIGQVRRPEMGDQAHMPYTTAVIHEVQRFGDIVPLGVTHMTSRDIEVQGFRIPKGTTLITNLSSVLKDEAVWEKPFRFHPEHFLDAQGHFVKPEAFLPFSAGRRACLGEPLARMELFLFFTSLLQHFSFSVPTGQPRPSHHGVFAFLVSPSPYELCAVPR
Experimental: as §1

Sequence of Fms kinase (P07333 20-972): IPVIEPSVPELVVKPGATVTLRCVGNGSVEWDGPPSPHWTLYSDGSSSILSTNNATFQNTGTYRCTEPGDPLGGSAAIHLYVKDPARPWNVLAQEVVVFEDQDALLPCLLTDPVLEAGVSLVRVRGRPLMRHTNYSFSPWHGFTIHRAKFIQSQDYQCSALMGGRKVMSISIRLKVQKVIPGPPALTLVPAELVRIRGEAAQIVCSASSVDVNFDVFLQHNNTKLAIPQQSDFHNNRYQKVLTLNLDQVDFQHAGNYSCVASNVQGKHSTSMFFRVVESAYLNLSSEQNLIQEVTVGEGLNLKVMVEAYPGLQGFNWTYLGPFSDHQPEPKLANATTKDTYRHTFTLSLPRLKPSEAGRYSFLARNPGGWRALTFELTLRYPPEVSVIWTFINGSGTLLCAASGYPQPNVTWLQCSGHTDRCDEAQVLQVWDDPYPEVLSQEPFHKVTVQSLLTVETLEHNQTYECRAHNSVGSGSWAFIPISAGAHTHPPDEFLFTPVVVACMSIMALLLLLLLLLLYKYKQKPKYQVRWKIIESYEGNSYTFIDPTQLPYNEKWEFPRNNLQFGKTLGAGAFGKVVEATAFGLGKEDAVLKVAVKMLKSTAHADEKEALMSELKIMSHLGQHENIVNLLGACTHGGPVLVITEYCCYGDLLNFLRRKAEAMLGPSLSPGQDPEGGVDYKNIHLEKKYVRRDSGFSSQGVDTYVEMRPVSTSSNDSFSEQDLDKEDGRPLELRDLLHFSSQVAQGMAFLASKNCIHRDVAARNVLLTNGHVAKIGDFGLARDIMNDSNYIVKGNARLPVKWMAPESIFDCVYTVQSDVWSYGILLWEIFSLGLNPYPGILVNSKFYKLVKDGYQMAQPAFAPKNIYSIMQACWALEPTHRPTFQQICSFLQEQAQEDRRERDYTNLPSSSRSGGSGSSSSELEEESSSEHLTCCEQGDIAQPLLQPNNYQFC

Row | SMILES | pIC50 [1] | pIC50 [2] | pIC50 [3] | turbidity threshold (L, M, H) 1.4 [4] | turbidity threshold (L, M, H) 4.5 [4] | turbidity threshold (L, M, H) 6.8 [4] | turbidity threshold (L, M, H) 7.4 [4] | pIC50 [5]
1 | Fc1nc(NC2CCC(F)(F)CC2)ccc1Cc1c[nH]c2ncc(Cl)cc12 [Compound P-3013, [5-(5-Chloro-1H-pyrrolo[2,3-b]pyridin-3-ylmethyl)-6-fluoro-pyridin-2-yl]-(4,4-difluoro-cyclohexyl)-amine] | > 8.00 | < 5.00 | 5.00 to 5.30 | L (low solubility if the threshold concentration is <31.3 μM) | L (low solubility if the threshold concentration is <31.3 μM) | L (low solubility if the threshold concentration is <31.3 μM) | L (low solubility if the threshold concentration is <31.3 μM) | < 5.00
2 | COc1ccc(Nc2ccc(C(=O)c3c[nH]c4ncnc(NC(C)(C)C)c34)c(F)n2)cn1 [Compound P-4055, [4-(tert-butylamino)-7H-pyrrolo[2,3-d]pyrimidin-5-yl]-[2-fluoro-6-[(6-methoxy-3-pyridyl)amino]-3-pyridyl]methanone] | > 7.00 | < 5.00 | > 5.00 | M (moderate solubility if the threshold concentration is 31.3 μM to 250 μM) | M (moderate solubility if the threshold concentration is 31.3 μM to 250 μM) | L (low solubility if the threshold concentration is <31.3 μM) | L (low solubility if the threshold concentration is <31.3 μM) | < 5.00
3 | COc1ccc(Nc2ccc(C(=O)c3c[nH]c4ncnc(NC5CCC(F)(F)CC5)c34)c(F)n2)cn1 [Compound P-4056, [4-[(4,4-difluorocyclohexyl)amino]-7H-pyrrolo[2,3-d]pyrimidin-5-yl]-[2-fluoro-6-[(6-methoxy-3-pyridyl)amino]-3-pyridyl]methanone] | > 7.00 | < 5.00 | < 5.00 | M (moderate solubility if the threshold concentration is 31.3 μM to 250 μM) | M (moderate solubility if the threshold concentration is 31.3 μM to 250 μM) | M (moderate solubility if the threshold concentration is 31.3 μM to 250 μM) | L (low solubility if the threshold concentration is <31.3 μM) | < 5.00
4 | O=C(c1ccc(NC2CCC(F)(F)CC2)nc1Cl)c1c[nH]c2ncnc(NCC(F)(F)F)c12 [Compound P-4057, [2-chloro-6-[(4,4-difluorocyclohexyl)amino]-3-pyridyl]-[4-(2,2,2-trifluoroethylamino)-7H-pyrrolo[2,3-d]pyrimidin-5-yl]methanone] | > 7.00 | < 5.00 | < 5.00 | L (low solubility if the threshold concentration is <31.3 μM) | L (low solubility if the threshold concentration is <31.3 μM) | L (low solubility if the threshold concentration is <31.3 μM) | M (moderate solubility if the threshold concentration is 31.3 μM to 250 μM) | < 5.00
5 | CNc1ncnc2[nH]cc(C(=O)c3ccc(NC4CCC(F)(F)CC4)nc3Cl)c12 [Compound P-4058, [2-chloro-6-[(4,4-difluorocyclohexyl)amino]-3-pyridyl]-[4-(methylamino)-7H-pyrrolo[2,3-d]pyrimidin-5-yl]methanone] | > 7.00 | < 5.00 | < 5.00 | M (moderate solubility if the threshold concentration is 31.3 μM to 250 μM) | L (low solubility if the threshold concentration is <31.3 μM) | L (low solubility if the threshold concentration is <31.3 μM) | L (low solubility if the threshold concentration is <31.3 μM) | < 5.00
6 | O=C(c1ccc(NC2CCC(F)(F)CC2)nc1Cl)c1c[nH]c2ncnc(NC3CC3)c12 [Compound P-4059, [2-chloro-6-[(4,4-difluorocyclohexyl)amino]-3-pyridyl]-[4-(cyclopropylamino)-7H-pyrrolo[2,3-d]pyrimidin-5-yl]methanone] | > 7.00 | < 5.00 | < 5.00 | M (moderate solubility if the threshold concentration is 31.3 μM to 250 μM) | L (low solubility if the threshold concentration is <31.3 μM) | L (low solubility if the threshold concentration is <31.3 μM) | L (low solubility if the threshold concentration is <31.3 μM) | < 5.00
7 | CCNc1ncnc2[nH]cc(C(=O)c3ccc(Nc4ccc(C5CC5)nc4)nc3F)c12 [Compound P-4060, [6-[(6-cyclopropyl-3-pyridyl)amino]-2-fluoro-3-pyridyl]-[4-(ethylamino)-7H-pyrrolo[2,3-d]pyrimidin-5-yl]methanone] | > 8.00 | < 5.00 | < 5.00 | H (high solubility if the threshold concentration is >250 μm) | M (moderate solubility if the threshold concentration is 31.3 μM to 250 μM) | M (moderate solubility if the threshold concentration is 31.3 μM to 250 μM) | M (moderate solubility if the threshold concentration is 31.3 μM to 250 μM) | < 5.00
